In publication PMC10786919, “Design-rules for stapled peptides with in vivo activity and their application to Mdm2/X antagonists” (Nature Communications, 2024):
Converted amounts (≈) assume the structure as drawn. Positions of bridges follow the written chain, without caps; N, C: chain ends. Non-standard residues stand in square brackets, D forms with d. Residues, ends and D or L forms follow the SMILES beside them. Lys(N3) = [N-]=[N+]=NCCCC[C@H](N)C(=O)O; R8 = C=CCCCCCC[C@@](C)(N)C(=O)O; Cba = N[C@@H](CC1CCC1)C(=O)O; S5 = C=CCCC[C@](C)(N)C(=O)O; βAla = NCCC(=O)O

Columns and labels:
[1] = Solubility assay (kinetic solubility, PBS pH 7); type: physicochemical; details: pH 7, PBS; for solubility kinetic: pH 7, aqueous buffer, kinetic from dmso stock, read-out: Solubility
Method: The standard reference solutions were prepared by diluting the 10 mM stock in 10:80:10 solution of acetonitrile:methanol:DMSO to 100 µM.
The solubility value is calculated by the following equation:
Solubility [µM] = (Peak area of sample/ Peak area of standard) (Standard concentration)

in vitro = details: Nanoclick permeability assay EC50
Source text: Further, there have been several literature reports[18]–[20] that highlight that the combination of hydrophobic character and positive charge can result in mast cell degranulation (MCD), a potentially fatal condition[18]–[20]. […] The NanoClick assay[22] determines permeability of azide-labeled peptides by combining intracellular copper-free click chemistry with NanoBRET technology. Specifically, if an azido-peptide achieves cytosolic exposure, it will react with a cyclooctyne-decorated Halotag construct that is fused with nanoluciferase. This reaction blocks the click labelling of a subsequently added azido-labeled acceptor dye, thus decreasing the NanoBRET signal in a manner that is target-binding agnostic.
This assay was previously described in detail. The assay was performed in 384-well white assay plates (PerkinElmer CUSG03874) using assay-ready frozen cells that had been transiently transfected with the NanoLuc-HaloTag vector that were thawed at plated in complete media at a density of 6000 cells/ well and incubated at 37 °C 5% CO2 overnight. DIBAC-CA was diluted in assay buffer (OptiMem without phenol red + 1% FBS) and added to cells at a final concentration of 3 μM and incubated at 37 °C 5% CO2 for 1 h. Cells were subsequently centrifuged using a BlueWasher instrument (Blue Cat Bio) to remove the DIBAC-CA solution and washed two times with HBSS (Ca2 + , Mg2 + ). A volume of 30 μL of assay buffer was added back to cell plates. Peptides were serially diluted 4-fold in DMSO with a Hamilton Star apparatus and then delivered into assay plates with an acoustic liquid handler Labcyte ECHO (300 nl, 1% DMSO in-well concentration). After incubating cells with peptide for the desired time (4 or 18 h), the HaloTag ligand, NanoBret618-azide, was added to each well at a final concentration of 10 μM. […] Following addition of NanoBRET Nano-Glo Substrate, donor emission (450 nm) and acceptor emission (610 nm) were measured using an Envision instrument (PerkinElmer).

[2] = Lactate dehydrogenase (LDH) release assay; type: cell-based
Method in brief: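 LDH release, fluorometric membrane-integrity read-out; HCT116 with stable p53-responsive β-lactamase reporter; 8000 cells/well; 0.5% DMSO final; geometric mean, n≥3 biological replicates.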

[3] = Experimental LogD (partition coefficient); details: for logD: not stated, Partition Coeff LogD

Compound | solubility kinetic [1] [µM] | cell entry EC50 (in vitro) [µM] | EC50 ([2]; LDH: Cytotoxicity assay: EC50) [µM] | logD [3] | EC50 ([2]; LDH: Cytotoxicity assay EC50) [µM] | Solubility [1] | Partition Coeff LogD [3]
CC(=O)N[C@@H](CCC(=O)O)C(=O)N[C@@H](CCC(=O)O)C(=O)N[C@@H](CCC(=O)O)C(=O)N[C@@H](CCCCN=[N+]=[N-])C(=O)NCCC(=O)N[C@@H](CC(C)C)C(=O)N[C@H](C(=O)N[C@@H](Cc1ccccc1)C(=O)N[C@]1(C)CCCCCCC=CCCC[C@@](C)(C(=O)N[C@@H](CCC(=O)O)C(=O)N[C@@H](CC(N)=O)C(=O)N[C@@H](Cc2ccccc2)C(N)=O)NC(=O)[C@H](CC2CCC2)NC(=O)[C@H](CCC(N)=O)NC(=O)[C@H](C)NC(=O)[C@H](Cc2c[nH]c3ccccc23)NC(=O)[C@H](Cc2ccc(O)cc2)NC(=O)[C@H](CCC(=O)O)NC1=O)[C@@H](C)O [MP-763] (Ac-EEE[Lys(N3)][βAla]LTF[R8]EYWAQ[Cba][S5]ENF-NH2; staple 9-16) | 156 (≈ 393 µg/mL) | 1.14 | > 50.7 | 1.86 | – | – | –
CC(=O)N[C@@H](CCCCN=[N+]=[N-])C(=O)NCCC(=O)N[C@@H](CC(C)C)C(=O)N[C@H](C(=O)N[C@@H](Cc1ccccc1)C(=O)N[C@]1(C)CCCCCCC=CCCC[C@@](C)(C(=O)N2CCC[C@H]2C(=O)N2CCC[C@H]2C(=O)N2CCC[C@H]2C(=O)N2CCC[C@H]2C(=O)N2CCC[C@H]2C(=O)N2CCC[C@H]2C(N)=O)NC(=O)[C@H](CC2CCC2)NC(=O)[C@H](CCC(N)=O)NC(=O)[C@H](C)NC(=O)[C@H](Cc2c[nH]c3ccccc23)NC(=O)[C@H](Cc2ccc(O)cc2)NC(=O)[C@H](CCC(=O)O)NC1=O)[C@@H](C)O [MP-093] | 156 (≈ 363 µg/mL) | 1.38 | – | 2.28 | > 50.7 | – | –
CC(C)C[C@@H]1NC(=O)[C@H](C)NC(=O)[C@H](Cc2c[nH]c3ccccc23)NC(=O)[C@H](Cc2ccc(O)cc2)NC(=O)[C@H](CCC(=O)O)NC(=O)[C@](C)(NC(=O)[C@H](Cc2ccccc2)NC(=O)[C@H](CO)NC(=O)[C@@H](NC(=O)[C@H](CO)NC(=O)CNC(=O)[C@H](CO)NC(=O)[C@H](CCCCN=[N+]=[N-])NC(=O)[C@H](CCC(=O)O)NC(=O)[C@H](CCC(=O)O)NC(=O)[C@@H](N)CCC(=O)O)[C@@H](C)O)CCCCCCC=CCCC[C@@](C)(C(N)=O)NC(=O)[C@H](CC(C)C)NC1=O [MP-948] (H-EEE[Lys(N3)]SGSTSF[R8]EYWALL[S5]-NH2; staple 11-18) | 112 (≈ 245 µg/mL) | > 10 | – | 1.48 | > 50 | – | –
CC(C)C[C@@H]1NC(=O)[C@H](C)NC(=O)[C@H](Cc2c[nH]c3ccccc23)NC(=O)[C@H](Cc2ccc(O)cc2)NC(=O)[C@H](CCC(=O)O)NC(=O)[C@](C)(NC(=O)[C@H](Cc2ccccc2)NC(=O)[C@H](CO)NC(=O)[C@@H](NC(=O)[C@H](CO)NC(=O)CNC(=O)[C@H](CO)NC(=O)[C@@H](N)CCCCN=[N+]=[N-])[C@@H](C)O)CCCCCCC=CCCC[C@@](C)(C(=O)N[C@@H](CCC(=O)O)C(=O)N[C@@H](CCC(=O)O)C(=O)N[C@@H](CCC(=O)O)C(N)=O)NC(=O)[C@H](CC(C)C)NC1=O [MP-951] (H-[Lys(N3)]SGSTSF[R8]EYWALL[S5]EEE-NH2; staple 8-15) | 119 (≈ 261 µg/mL) | 2.15 | – | 1.94 | > 50 | – | –
C[C@H](NC(=O)[C@H](C)NC(=O)[C@H](C)NC(=O)[C@]1(C)CCCC=CCCCCCC[C@@](C)(NC(=O)[C@H](Cc2ccccc2)NC(=O)[C@@H](NC(=O)[C@H](C)NC(=O)CCNC(=O)[C@H](CCCCN=[N+]=[N-])NC(=O)[C@H](C)NC(=O)[C@H](C)NC(=O)[C@H](CCCNC(=N)N)NC(=O)[C@H](CCCNC(=N)N)NC(=O)[C@H](CO)NC(=O)[C@H](CCCNC(=N)N)NC(=O)[C@H](CO)NC(=O)[C@H](CCCNC(=N)N)NC(=O)CN)[C@@H](C)O)C(=O)N[C@@H](C)C(=O)N[C@@H](Cc2ccc(O)cc2)C(=O)N[C@@H](Cc2c[nH]c3ccccc23)C(=O)N[C@@H](C)C(=O)N[C@@H](C)C(=O)N[C@@H](CC2CCC2)C(=O)N1)C(N)=O [MP-878] (H-GRSRSRRAA[Lys(N3)][βAla]ATF[R8]AYWAA[Cba][S5]AAA-NH2; staple 15-22) | – | 2.1 | – | 2.81 | – | Poorly Behaved | –
CC(=O)N[C@@H](CCC(=O)O)C(=O)N[C@@H](CCC(=O)O)C(=O)N[C@@H](CCCCN=[N+]=[N-])C(=O)NCCCCCC(=O)N[C@H](C(=O)N[C@@H](CO)C(=O)N[C@@H](Cc1ccccc1)C(=O)N[C@]1(C)CCCCCCC=CCCC[C@@](C)(C(N)=O)NC(=O)[C@H](CC(C)C)NC(=O)[C@H](CC(C)C)NC(=O)[C@H](C)NC(=O)[C@H](Cc2c[nH]c3ccccc23)NC(=O)[C@H](Cc2ccc(O)cc2)NC(=O)[C@H](CCC(=O)O)NC1=O)[C@@H](C)O [MP-661] | 27 (≈ 53.7 µg/mL) | 0.546 | – | 2.02 | > 50 | – | –
CC[C@H](C)[C@H](NC(=O)[C@H](CC(C)C)NC(=O)[C@H](Cc1ccccc1)NC(=O)[C@@H](N)Cc1ccccc1)C(=O)N1CCC[C@H]1C(=O)N[C@@H](CCCCN)C(=O)NCC(=O)N[C@@H](CCCNC(=N)N)C(=O)N[C@@H](CCCNC(=N)N)C(=O)N[C@@H](CCCNC(=N)N)C(=O)N[C@@H](CCCNC(=N)N)C(=O)N[C@@H](CCCNC(=N)N)C(=O)N[C@@H](CCCNC(=N)N)C(=O)N[C@@H](CCCNC(=N)N)C(=O)N[C@@H](CCCNC(=N)N)C(=O)N[C@@H](CCCNC(=N)N)C(=O)N[C@@H](CCCCN=[N+]=[N-])C(=O)NCCC(=O)N[C@@H](CC(C)C)C(=O)N[C@H](C(=O)N[C@@H](Cc1ccccc1)C(=O)N[C@]1(C)CCCCCCC=CCCC[C@@](C)(C(=O)N[C@@H](CO)C(=O)N[C@@H](C)C(=O)N[C@@H](C)C(N)=O)NC(=O)[C@H](CC2CCC2)NC(=O)[C@H](CCC(N)=O)NC(=O)[C@H](C)NC(=O)[C@H](Cc2c[nH]c3ccccc23)NC(=O)[C@H](Cc2ccc(O)cc2)NC(=O)[C@H](CCC(=O)O)NC1=O)[C@@H](C)O [MP-656] (H-FFLIPKGRRRRRRRRR[Lys(N3)][βAla]LTF[R8]EYWAQ[Cba][S5]SAA-NH2; staple 22-29) | – | 0.544 | – | – | – | Poorly Behaved | Poorly Behaved
CC(C)C[C@@H]1NC(=O)[C@H](C)NC(=O)[C@H](Cc2c[nH]c3ccccc23)NC(=O)[C@H](Cc2ccc(O)cc2)NC(=O)[C@H](CCC(=O)O)NC(=O)[C@](C)(NC(=O)[C@H](Cc2ccccc2)NC(=O)[C@H](CO)NC(=O)[C@@H](NC(=O)[C@H](CO)NC(=O)CNC(=O)[C@H](CO)NC(=O)[C@H](CCCCN=[N+]=[N-])NC(=O)[C@H](CCC(=O)O)NC(=O)[C@H](CCC(=O)O)NC(=O)[C@@H](N)CCC(=O)O)[C@@H](C)O)CCCCCCC=CCCC[C@@](C)(C(=O)N[C@@H](CCC(=O)O)C(=O)N[C@@H](CC(N)=O)C(N)=O)NC(=O)[C@H](CC(C)C)NC1=O [MP-949] (H-EEE[Lys(N3)]SGSTSF[R8]EYWALL[S5]EN-NH2; staple 11-18) | 104 (≈ 253 µg/mL) | 4.35 | – | 1.66 | > 50 | – | –
